According to PubChem BioAssay AID463204 (Broad Institute, 2010):
The source made the active and inactive calls.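 Rule for the calls: active = AC50 no more than ten times the top concentration tested, that is within one log above it; inconclusive = flat curve fit with activity between 30% and 70%, or invalid poor fit; inactive = AC50 beyond ten times the top tested dose.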

Tested on: S. cerevisiae Mot1-301 ts growth rescue, BacTiter-Glo ATP luminescence
Experiment: restored Mot1-301 yeast growth at 38.5C – whole organism, S. cerevisiae, Mot1-301 ts mutant, luminescence, dose retest, SUMOylation pathway inhibitor project, confirmation (AID 463204);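 note: growth at restrictive 38.5 degrees C of Mot1-301 OY566 strain; actives raise luminescence by restoring growth of the ts mutant at high temperature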

Row | Compound | AC50
1 | CCC1CCCCN1CCCNC(=O)C1CCC(CNS(=O)(=O)c2c(C)cc(C)cc2C)CC1 (stereo unspecified) | > 42 µM (inactive)
2 | CC(C)CN(C(=O)COC(=O)c1ccc2c(c1)OCO2)c1c(N)n(Cc2ccccc2)c(=O)[nH]c1=O | > 42 µM (inactive)
3 | COc1ccc(Cl)cc1C(=O)NCCc1ccc(S(=O)(=O)NC(=O)NC2CCCCC2)cc1 | > 42 µM (inactive)
4 | O=C(N/N=C/c1ccccn1)NC12CC3CC(CC(C3)C1)C2 | > 42 µM (inactive)
5 | CCN(CC(=O)N1CCCCCC1)S(=O)(=O)c1ccc(Cl)cc1 | > 42 µM (inactive)
6 | O=C(C1CCN(S(=O)(=O)N2CCC3(CC2)OCCO3)CC1)N1CCC(Cc2ccccc2)CC1 | > 42 µM (inactive)
7 | COc1ccc(NC(=O)Cn2nnc(C(=O)Nc3ccc(F)c(Cl)c3)c2N)cc1 | > 42 µM (inactive)
8 | N=c1sccn1CC(=O)Nc1cccc(S(N)(=O)=O)c1 | > 42 µM (inactive)
9 | Clc1ccc(CONc2ncnc3nonc23)c(Cl)c1 | 5.49 µM
10 | COc1ccccc1CCNC(=O)/C(=C/c1cccnc1)NC(=O)c1ccccc1 | > 42 µM (inactive)
11 | N=c1c2c(n(Cc3ccc(Cl)c(Cl)c3)c3c1CCC3)CCCC2 | > 42 µM (inactive)
12 | c1ccc(-c2nc(NCc3ccco3)c3ccccc3n2)nc1 | > 42 µM (inactive)
13 | Cc1ccc(Nc2cc(C)nc3c(C)ccc([N+](=O)[O-])c23)cc1 | 13.8 µM
14 | CN(C)CCNC(=O)c1c(O)c2c([nH]c1=O)CCCC2 | > 42 µM (inactive)
15 | COc1cc(/C=N/NC(=O)c2cccnc2)ccc1OCC(=O)N1CCOCC1 | > 42 µM (inactive)
16 | CC(=O)C1(c2ccccc2)CCNCC1 | > 21 µM (inactive)
17 | CC(C)(C)Cc1nc(-c2ccccn2)no1 | > 42 µM (inactive)
18 | CC1(C)CC(=O)C=C(OC(=O)c2ccc(Cl)cc2)C1 | > 42 µM (inactive)
19 | O=C(O)c1ccc(S(=O)(=O)N2CCN(c3ccccn3)CC2)cc1 | > 42 µM (inactive)
20 | Cc1[nH]oc(=O)c1N=Nc1c(Cl)cccc1Cl | 6.02 µM
21 | Cc1ccc(S(=O)(=O)N(C)c2ccc(OC(=O)CN3C(=O)NC4(CCCC4)C3=O)cc2)cc1C | > 42 µM (inactive)
22 | Cc1cc2nc(CCl)cc(=O)n2[nH]1 | > 42 µM (inactive)
23 | COc1ccc(OC)c(NC(=O)CN(C)S(=O)(=O)c2ccc(Cl)cc2)c1 | > 42 µM (inactive)
24 | CSc1nsc(SCC(=O)Nc2cccc(C(=O)O)c2)n1 | > 42 µM (inactive)
25 | Cc1cc(NC(=O)c2ccc3c(c2)C(=O)N(C(C)(C)C)C3=O)no1 | > 42 µM (inactive)
26 | O=S(=O)(NCCN1CCCC1)c1cccc2cccnc12 | > 42 µM (inactive)

Row | Compound | AC50
27 | Cc1cc(F)ccc1S(=O)(=O)Nc1ccccc1C(=O)Nc1ccc2[nH]c(=O)[nH]c2c1 | > 42 µM (inactive)
28 | CC(=O)Nc1ccc(-c2csc(NC(=O)C3CC(=O)N(c4ccc5c(c4)OCCO5)C3)n2)cc1 (stereo unspecified) | > 42 µM (inactive)
29 | Cc1cccc(N2CCN(CCCNC(=O)c3ccc(NC(=O)C4=CSCCO4)cc3)CC2C)c1 (stereo unspecified) | > 42 µM (inactive)
30 | CN(C)CCOC(c1ccc(Cl)cc1)c1ccccn1 (stereo unspecified) | > 42 µM (inactive)
31 | COc1ccc(CNS(=O)(=O)c2ccc3c(c2)CCN3C(=O)C2CCC2)cc1 | > 42 µM (inactive)
32 | Cc1ccc(O)c(CNc2nc3ccccc3n2C)c1 | > 42 µM (inactive)
33 | NC1=NC2(CCCC2)N=C(Nc2ccccc2)N1 | > 42 µM (inactive)
34 | COCCN(C(=O)C1CC1)c1nnc(-c2ccc(C)cc2)s1 | > 42 µM (inactive)
35 | N#Cc1cc2c(nc1SCc1cccnc1)CCC2 | > 42 µM (inactive)
36 | O=c1oc2cc(S(=O)(=O)NCCCO)ccc2c2ccc(S(=O)(=O)NCCCO)cc12 | > 42 µM (inactive)
37 | COc1cc(C(=O)NCCC2=CCCCC2)cc(OC)c1OC | > 42 µM (inactive)
38 | COc1cc(CN2CCN(c3ncccn3)CC2)cc(OC)c1 | > 42 µM (inactive)
39 | Cc1c(=O)n(OCc2ccccn2)c2ccccc2[n+]1[O-] | > 42 µM (inactive)
40 | Cc1ccc(C(=O)Nc2ccc3c(c2)OCCO3)c(Cl)c1 | > 42 µM (inactive)
41 | C/C=C/C(=O)N1c2ccc(C)cc2C(C)=CC1(C)C | > 42 µM (inactive)
42 | CCc1nccn1S(=O)(=O)c1cc(OC)ccc1OC | > 42 µM (inactive)
43 | COc1cc(/C=C2\NC(=S)N(C)C2=O)ccc1OCc1cccc(F)c1 | > 42 µM (inactive)
44 | CC1CN(C(=O)c2cc([N+](=O)[O-])cc([N+](=O)[O-])c2)CC(C)O1 (stereo unspecified) | > 42 µM (inactive)
45 | Oc1c(Br)cc(Br)cc1/C=N/N1CCN(Cc2ccccc2)CC1 | 1.78 µM
46 | COCCCNC(=O)c1cc2cc([N+](=O)[O-])cc(OC)c2oc1=O | > 42 µM (inactive)
47 | CCCCC1=CC2=CC(=O)C(C)(OC(=O)CC)C(=O)C2=CN1CCCOC(C)C (stereo unspecified) | > 42 µM (inactive)
48 | CCC(=O)c1c[nH]c(C(=O)NCCCn2ccnc2)c1 | > 42 µM (inactive)
49 | CN(C)c1ccc(/C=C/c2cccc[n+]2[O-])cc1 | > 42 µM (inactive)
50 | Cc1ccc(NC(=O)COC(=O)c2csc3c2CCC(C)C3)cc1S(=O)(=O)N1CCCCC1 (stereo unspecified) | > 42 µM (inactive)
51 | CCCCn1c(N)c(N(CC(C)C)C(=O)c2cc(-c3ccc(F)cc3)nc3ccccc23)c(=O)[nH]c1=O | > 42 µM (inactive)
52 | COc1ccc(-c2oc3ccc(-c4cc(OC)c(OC)c(OC)c4)cc3c2C(=O)c2ccc(OC)nc2)cc1 | > 42 µM (inactive)

Row | Compound | AC50
53 | CC1=Nc2ccc(C)cc2N(Cc2ccccc2)C(=O)C1 | > 42 µM (inactive)
54 | COc1ccccc1CC(=O)N1CCOCC1 | > 42 µM (inactive)
55 | COc1ccc(S(=O)(=O)N2CCCOC2CNC(=O)C(=O)NCCCN2CCOCC2)cc1C (stereo unspecified) | > 42 µM (inactive)
56 | CCCOc1ccc(C(=O)NCc2ccco2)cc1 | > 42 µM (inactive)
57 | CCN(CC)CC(=O)Nc1ccc(Oc2ccc(NC(=O)CN(CC)CC)cc2)cc1 | > 42 µM (inactive)
58 | CC(C)N=C(NS(=O)(=O)NC(=O)c1ccccc1)c1ccccc1 | > 42 µM (inactive)
59 | COC(C(=O)Nc1ccnn1C1CCN(Cc2cnn(C)c2)CC1)c1ccccc1 (stereo unspecified) | > 42 µM (inactive)
60 | CSc1nncc(/C(C)=N\Nc2cccc(C)c2)n1 | > 42 µM (inactive)
61 | CN(C(=O)CSc1nc(-c2ccccc2)c(-c2ccccc2)o1)C1CCS(=O)(=O)C1 (stereo unspecified) | > 42 µM (inactive)
62 | COc1cccc(Nc2nc(C)nc3c2oc2ccccc23)c1 | > 42 µM (inactive)
63 | CCCOC(=O)C1=C(C)NC2=C(C(=O)CCC2)C1c1cccs1 (stereo unspecified) | > 42 µM (inactive)
64 | CCS(=O)c1ccccc1C(=O)O (stereo unspecified) | > 42 µM (inactive)
65 | Cc1c(C(=O)N2CCOCC2)c(S(=O)(=O)Nc2cccc(Br)c2)c(C)n1C | > 42 µM (inactive)
66 | CN=C(Nc1cccnc1)c1ccccc1 | > 42 µM (inactive)
67 | O=C(Nc1nc(-c2ccccn2)cs1)c1ccc2c(c1)OCCO2 | > 42 µM (inactive)
68 | COC(=O)c1cc(N=Nc2c(C)[nH]c3ccccc23)cc(C(=O)OC)c1 | > 42 µM (inactive)
69 | Cc1cccc(NC(=O)CSCC(=O)N2CCCc3ccccc32)c1 | > 42 µM (inactive)
70 | Cc1cc(S(=O)(=O)N2CCCCC2CCNC(=O)C(=O)NCC2CCCO2)ccc1F (stereo unspecified) | > 42 µM (inactive)
71 | CC(=O)N1N=C(c2ccc(C(C)(C)C)cc2)OC1(C)C | > 42 µM (inactive)
72 | CN/C(=C/[N+](=O)[O-])NCCSCc1ccc(CN(C)C)o1 | > 42 µM (inactive)
73 | O=C(NNC(=O)C12CC3CC(CC(C3)C1)C2)c1ccccn1 | 21 µM
74 | CCCCC(O)(c1ccc(F)cc1)C(CN1CCOCC1)c1ccc(Cl)cc1 (stereo unspecified) | 5.49 µM
75 | CC1CCN(CCCCOc2ccc(F)cc2)CC1 | > 42 µM (inactive)
76 | O=c1cc(COc2ncnc3ccccc23)nc2sccn12 | > 42 µM (inactive)
77 | Cc1cc(C)n2c(SCC(C)C)nnc2n1 | > 42 µM (inactive)
78 | Cc1c(C(=O)NC(C)C)oc2c1-c1[nH]ncc1CC2 | > 42 µM (inactive)

Row | Compound | AC50
79 | O=C(/C(=N\Nc1ccc(Br)cc1)Sc1nnnn1-c1ccccc1)c1ccccc1 | > 42 µM (inactive)
80 | CCOc1ccc(S(=O)(=O)N2CCC(C(=O)N3CCN(c4ccccc4)CC3)CC2)cc1 | > 42 µM (inactive)
81 | CC(=O)c1ccc(N=C2SCCCN2C(=O)C2CCCC2)cc1 | > 42 µM (inactive)
82 | COc1ccccc1NC(NC(=O)c1ccco1)C(=O)c1ccccc1 (stereo unspecified) | > 42 µM (inactive)
83 | CCOC(=O)N1CCN(c2cc3[nH]c(=S)[nH]c3cc2F)CC1 | > 42 µM (inactive)
84 | COCCN(C(=O)CSc1nnc(-c2ccc(C)cc2)n1N)c1c(N)n(Cc2ccccc2)c(=O)[nH]c1=O | > 42 µM (inactive)
85 | O=C1CC(=O)C(n2cncn2)C(c2ccc(Cl)cc2Cl)C1 (stereo unspecified) | > 42 µM (inactive)
86 | NS(=O)(=O)c1cccc(NC(=O)CSc2nnnn2-c2ccccc2)c1 | > 42 µM (inactive)
87 | CC1CC(C)(C)NC(=S)N1CC(=O)NCc1ccc(F)cc1 (stereo unspecified) | > 42 µM (inactive)
88 | C=CCOC(=O)C(C#N)c1nc2ccccc2nc1N1CCN(Cc2ccccc2)CC1 (stereo unspecified) | > 42 µM (inactive)
89 | O=C(CS(=O)c1ccc(C(F)(F)F)cc1[N+](=O)[O-])Oc1ccc(Cl)cc1 (stereo unspecified) | 1.47 µM
90 | CC1(C)C(C=C(Cl)Cl)C1C(=O)OCc1cccc(Oc2ccccc2)c1 (stereo unspecified) | > 42 µM (inactive)
91 | CC(C)(C)NC(=S)NCc1cccnc1 | > 42 µM (inactive)
92 | O=C(Nc1nc2ccccc2s1)c1cccc(S(=O)(=O)N2CCc3ccccc32)c1 | > 42 µM (inactive)
93 | Cc1ccc(S(=O)(=O)Oc2ccc(/C=C3\N=C(c4cccc(C)c4)OC3=O)cc2)cc1 | > 42 µM (inactive)
94 | CCCN1C(=O)c2ccccc2NC1c1ccc(C)cc1 (stereo unspecified) | > 42 µM (inactive)
95 | CCNCc1nc2cc(Cl)ccc2c(=O)[nH]1 | > 42 µM (inactive)
96 | CC1(C)CNc2cc([N+](=O)[O-])ccc2S1 | 27.7 µM
97 | c1ccc2c(c1)OCCOCCOc1ccccc1OCCOCCO2 | > 42 µM (inactive)
98 | CCC(=O)N(Cc1ccc2c(c1)OCO2)Cc1cc2cc(OC)ccc2[nH]c1=O | > 42 µM (inactive)
99 | COc1ccc(S(=O)(=O)Cc2ccc(C(=O)NCc3cccs3)o2)cc1 | > 42 µM (inactive)
100 | O=c1c2c3c(sc2n2cnnc2n1-c1ccccc1)N(Cc1ccccc1)CCC3 | > 42 µM (inactive)
101 | Cc1cccc(N(C(=O)c2ccc(CN3CCOCC3)o2)C(C(=O)NC2CCCCC2)c2ccc(F)cc2)c1 (stereo unspecified) | > 42 µM (inactive)
